Experiments:
Nrf2 mRNA = assay: Nrf2 transcript degradation after siRNA transfection, real time TAQMAN PCR; type: cell-based, human; conditions: A549; for relative potency among the Nrf2 siRNA duplexes: Nrf2 transcript, 24 and 48 hours
Procedure: To study the degradation of Nrf2 mRNA with siRNA in a time dependent manner, a pooled mixture of the generated duplexes were transfected into A549 human non-small cell lung carcinoma cell line. As a control, a non-specific scrambled siRNA duplex (SC) was used. Transfection vehicle alone was also used as control. Total RNA was isolated after 24, 48 and 72 hours. The amount of Nrf2 transcript was measured using real time TAQMAN PCR. […] These five ND duplexes were again screened using the same assay to measure amount of Nrf2 transcript as described above.
Total RNA was extracted from lung tissues and or cells using RNeasy kit (Qiagen, Valencia Calif.) and was quantified by UV absorbance spectrophotometry. The reverse transcription reaction was performed by using the Superscript First Strand Synthesis system (Invitrogen, Carlsbad Calif.) in a final volume of 20 μl containing 2 μg of total RNA, 100 ng of random hexamers, 1× reverse transcription buffer, 2.5 mM MgCl2, 1 mM dNTP, 10 units of RNaseOUT, 20 units of Superscript reverse transcriptase, and DEPC-treated water. Quantitative real time RT-PCR analyses of Human KEAP1, NRF2, GCLc, GCLm, GSR, PRDX1, GSTA3, GSTA2, NQO1, MRP1 and MRP2 were performed by using assay on demand primers and probe sets from Applied Biosystems. Assays were performed by using the ABI 7000 Taqman system (Applied Biosystems, Foster City Calif.). β-ACTIN was used for normalization.
The siRNA sequence targeting NRF2 corresponds to the coding region 1903-1921 nt (5′-[…]-3′; SEQ ID NO:27) in the NRF2 cDNA. The NRF2 siRNA duplex with the following sense and antisense sequences was used: 5′-GUAAGAAGCCAGAUGUUAAdUdU (sense; SEQ ID NO:50) and dUd[…]-5′ (antisense; SEQ ID NO:28). To confirm the specificity of the inhibition, the siCONTROL non-targeting siRNA 1 (NS siRNA; 5′[…] 3′; SEQ ID NO:29) with microarray-defined signature was used as a negative control. All of the siRNA duplexes were synthesized by Dharmacon Research, Inc. (Lafayette). Cells in the exponential growth phase were plated at a density of 0.2×10^6 cells/ml, grown for 12 h, and transfected twice at an interval of 48 h with 50 nM siRNA duplexes using Lipofectamine 2000 and OPTI-MEMI reduced serum medium (Invitrogen, Carlsbad Calif.) according to the manufacturer's recommendations. Concentrations of siRNAs were chosen on the basis of dose-response studies.

Nrf2 = assay: ARE-luciferase transcriptional reporter assay; type: cell-based, mice; conditions: Hepa cells stably transfected with pARE-luc; 5, 10, 50 μM
Procedure: In this example, a high throughput approach to screen different chemicals for their potency to inhibit Nrf2 activation is described. A cell based transcriptional reporter assay approach was used for the identification of agents that inhibit Nrf2 mediated transcription. Hepa cells, which are mice liver carcinoma cells, were stably transfected with the ARE-luciferase reporter vector, and plated on to 96 or […] well plates. After overnight incubation, the cells were pretreated for 1-3 hours with different compounds, and challenged with a known Nrf2 activator, sulforaphane and dibenzoylmethane (DBM). Luciferase activity was measured after 6 hours following the last treatment using a commercially available system.

[1] = test system: Renca renal carcinoma cells; assay: cells; type: cell-based
Excerpt: The effect of Nrf2 siRNA on the killing of Renca renal carcinoma cells was examined using etoposide, another widely used anticancer drug. To generate stable Renca cell lines that over-expressed Nrf2 siRNA and non-specific scramble siRNA (SC siRNA), the siRNA sequence was converted into short hairpin RNA (shRNA) and cloned in to a BLOCK-IT U6 RNAi Entry Vector (Invitrogen). The shRNA construct was packaged into a lentiviral vector, and transduced into Renca cell lines. Recombinants were selected with antibiotic. Renca cells stably expressing Nrf2 siRNA and non-specific LacZ siRNA were screened, and two clones expressing Nrf2 siRNA showing maximum knockdown of Nrf2 message were selected for further characterization. A cell viability assay was performed using these clones using etoposide as the chemotherapeutic drug. […] Cell viability was measured using the MTT [3-(4,5-dimethylthiazol-2-yl)-2,5-diphenyltetrazolium bromide] assay after 48 hours. Briefly, cells were transfected with 50 nM siRNAs two times within a 48 h interval and, 24 hours after the second transfection, cells were plated at a density of 7,500 cells/well in 180 μl of growth media in 96-well plates. […] After 96 h, drug cytotoxicity was evaluated by using a 3-(4,5-dimethylthiazol-2-yl)-2,5-diphenyl tetrazolium bromide (MTT; Sigma) reduction conversion assay. […]

Q: For “ND5: siRNA duplex, Nrf2 mRNA position 1485-1463; antisense SEQ ID NO: 4 UUCAUCUCUUGUGAGAUGAGCCUCC, sense SEQ ID NO: 8 (sense GGAGGCUCAUCUCACAGAGAUGAA; listed as RNA, chemistry not given here)”, which “relative potency among the Nrf2 siRNA duplexes” value (Nrf2 mRNA) is on record?
A: most potent

Q: With “ND4: siRNA duplex, Nrf2 mRNA position 1563-1581; sense SEQ ID NO: 3 AUGAUGUCCAAAGAGCAGUUU, antisense SEQ ID NO: 7 (antisense ACUGCUCUUUGGACAUCAUUU; listed as RNA, chemistry not given here)” as the molecule, how does the “relative potency among the Nrf2 siRNA duplexes” value (Nrf2 mRNA) read?
A: most potent

Q: O=C(CC(=O)c1ccccc1)c1ccccc1 [dibenzoylmethane] was tested. Which luciferase activity (Nrf2) did it give?
A: increase in luciferase activity

Q: With “ND1: siRNA duplex, Nrf2 mRNA (NM_006164) position 1686-1704; sense SEQ ID NO: 1 CUAGAGCAAGAUUUAGAUCUU, antisense SEQ ID NO: 5 (antisense GAUCUAAAUCUUGCUCUAGUU; listed as RNA, chemistry not given here)” as the molecule, how does the “relative potency among the Nrf2 siRNA duplexes” value (Nrf2 mRNA) read?
A: most potent

Q: For COc1cc([C@@H]2c3cc4c(cc3[C@@H](O[C@@H]3O[C@@H]5CO[C@@H](C)O[C@H]5[C@H](O)[C@H]3O)[C@H]3COC(=O)[C@H]23)OCO4)cc(OC)c1O [Etoposide, etoposide], which viability at 250 µM ([1]; Renca, read-out: viable cells) is on record?
A: ~100%

Q: What about the viability ([1]; mouse, 48 h, 250 μM) of the same molecule?
A: −60%

Q: How did the luciferase activity (Nrf2) turn out when C[S+]([O-])CCCCN=C=S (stereo not drawn) [sulforaphane] was run?
A: increase in luciferase activity

Q: What does the source list for “ND3: siRNA duplex, Nrf2 mRNA position 1903-1921; sense SEQ ID NO: 2 GUAAGAAGCCAGAUGUUAAUU, antisense SEQ ID NO: 6 (antisense UUAACAUCUGGCUUCUUACUU; listed as RNA, chemistry not given here)”?
A: relative potency among the Nrf2 siRNA duplexes (Nrf2 mRNA): most potent; degradation of Nrf2 message (Nrf2 mRNA; after 24 and 48 hours, individual duplexes): maximum message degradation

From patent publication US8216777B2, “Compositions and methods for the treatment or prevention of chemoresistant neoplasia” (The Johns Hopkins University, priority 2006, dated 2012)
